Measured values reported in the supplement of paper PMC10307832.

How the values were obtained:
Assay in all cases: relative viability (nuclei count vs DMSO), 5 days (fraction); higher = more cells survive
A-427 = system: A-427
How it was run: (§1)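 Values are medians from duplicate plates. Each reflects relative viability, defined as the nuclei count of treated wells over that of vehicle wells. Lung cancer cell lines in 1536-well plates were pin-tool dosed one day after seeding with one drug alone or with a fixed anchor-drug dose plus five library-drug doses (not always all listed) in √10 steps, then fixed, stained and imaged at 4× after 5 days.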

HCC-15 = system: HCC-15
How it was run: as §1

HCC-78 = system: HCC-78
How it was run: as §1

HOP-62 = system: HOP-62
How it was run: as §1

LC-2-ad = system: LC-2-ad
How it was run: as §1

LOU-NH91 = system: LOU-NH91
How it was run: as §1

LXF-289 = system: LXF-289
How it was run: as §1

NCI-H1734 = system: NCI-H1734
How it was run: as §1

NCI-H1755 = system: NCI-H1755
How it was run: as §1

NCI-H1792 = system: NCI-H1792
How it was run: as §1

NCI-H1915 = system: NCI-H1915
How it was run: as §1

NCI-H1975 = system: NCI-H1975
How it was run: as §1

NCI-H2126 = system: NCI-H2126
How it was run: as §1

NCI-H2228 = system: NCI-H2228
How it was run: as §1

NCI-H2342 = system: NCI-H2342
How it was run: as §1

NCI-H2347 = system: NCI-H2347
How it was run: as §1

NCI-H358 = system: NCI-H358
How it was run: as §1

NCI-H460 = system: NCI-H460
How it was run: as §1

NCI-H522 = system: NCI-H522
How it was run: as §1

NCI-H647 = system: NCI-H647
How it was run: as §1

PC-3 [JPC-3] = system: PC-3 [JPC-3]
How it was run: as §1

RERF-LC-KJ = system: RERF-LC-KJ
How it was run: as §1

SK-LU-1 = system: SK-LU-1
How it was run: as §1

SW 1573 = system: SW 1573
How it was run: as §1

`Clc1ccc(Nc2nnc(Cc3ccncc3)c3ccccc23)cc1` [Vatalanib] + Nc1nc2[nH]cc(CCc3ccc(C(=O)N[C@@H](CCC(=O)O)C(=O)O)cc3)c2c(=O)[nH]1 [Pemetrexed] (partner 0.2 µM) gave a relative viability (A-427; first compound 0.04 µM) of 0.98, a relative viability (A-427; first compound 0.1265 µM) of 0.957 and a relative viability (A-427; first compound 0.4 µM) of 0.993. The relative viability (A-427; first compound 4 µM) was 0.947, the relative viability (HCC-15; first compound 0.04 µM) was 0.234 and the relative viability (HCC-15; first compound 0.1265 µM) was 0.218. It also gave a relative viability (HCC-15; first compound 0.4 µM) of 0.225, a relative viability (HCC-15; first compound 1.265 µM) of 0.235 and a relative viability (HCC-15; first compound 4 µM) of 0.219. For the same compound, the relative viability (HCC-78; first compound 0.04 µM) was 0.924, the relative viability (HCC-78; first compound 0.1265 µM) was 0.981 and the relative viability (HCC-78; first compound 0.4 µM) was 0.881. The relative viability (HCC-78; first compound 1.265 µM) was 0.947, the relative viability (HCC-78; first compound 4 µM) was 0.906 and the relative viability (HOP-62; first compound 0.04 µM) was 0.273. For the same compound, the relative viability (HOP-62; first compound 0.1265 µM) was 0.336, the relative viability (HOP-62; first compound 0.4 µM) was 0.277 and the relative viability (HOP-62; first compound 1.265 µM) was 0.275. The relative viability (HOP-62; first compound 4 µM) was 0.349, the relative viability (LC-2-ad; first compound 0.04 µM) was 0.267 and the relative viability (LC-2-ad; first compound 0.1265 µM) was 0.27. For the same compound, the relative viability (LC-2-ad; first compound 0.4 µM) was 0.275, the relative viability (LC-2-ad; first compound 1.265 µM) was 0.267 and the relative viability (LC-2-ad; first compound 4 µM) was 0.288. It also gave a relative viability (LOU-NH91; first compound 0.04 µM) of 0.417, a relative viability (LOU-NH91; first compound 0.1265 µM) of 0.378 and a relative viability (LOU-NH91; first compound 0.4 µM) of 0.373. It also gave a relative viability (LOU-NH91; first compound 1.265 µM) of 0.366, a relative viability (LOU-NH91; first compound 4 µM) of 0.361 and a relative viability (LXF-289; first compound 0.04 µM) of 0.887. It also gave a relative viability (LXF-289; first compound 0.1265 µM) of 0.879, a relative viability (LXF-289; first compound 0.4 µM) of 0.955 and a relative viability (LXF-289; first compound 1.265 µM) of 0.908. It also gave a relative viability (LXF-289; first compound 4 µM) of 0.822, a relative viability (NCI-H1734; first compound 0.04 µM) of 0.401 and a relative viability (NCI-H1734; first compound 0.1265 µM) of 0.42. For the same compound, the relative viability (NCI-H1734; first compound 0.4 µM) was 0.414, the relative viability (NCI-H1734; first compound 1.265 µM) was 0.427 and the relative viability (NCI-H1734; first compound 4 µM) was 0.379. For the same compound, the relative viability (NCI-H1755; first compound 0.04 µM) was 0.4, the relative viability (NCI-H1755; first compound 0.1265 µM) was 0.504 and the relative viability (NCI-H1755; first compound 0.4 µM) was 0.461. For the same compound, the relative viability (NCI-H1755; first compound 1.265 µM) was 0.416, the relative viability (NCI-H1755; first compound 4 µM) was 0.38 and the relative viability (NCI-H1792; first compound 0.04 µM) was 0.902. For the same compound, the relative viability (NCI-H1792; first compound 0.1265 µM) was 0.781, the relative viability (NCI-H1792; first compound 0.4 µM) was 0.771 and the relative viability (NCI-H1792; first compound 1.265 µM) was 0.817. It also gave a relative viability (NCI-H1792; first compound 4 µM) of 0.699, a relative viability (NCI-H1915; first compound 0.04 µM) of 0.505 and a relative viability (NCI-H1915; first compound 0.1265 µM) of 0.558. The relative viability (NCI-H1915; first compound 0.4 µM) was 0.53, the relative viability (NCI-H1915; first compound 1.265 µM) was 0.477 and the relative viability (NCI-H1915; first compound 4 µM) was 0.498. It also gave a relative viability (NCI-H1975; first compound 0.04 µM) of 0.265, a relative viability (NCI-H1975; first compound 0.1265 µM) of 0.305 and a relative viability (NCI-H1975; first compound 0.4 µM) of 0.297. For the same compound, the relative viability (NCI-H1975; first compound 1.265 µM) was 0.28, the relative viability (NCI-H1975; first compound 4 µM) was 0.286 and the relative viability (NCI-H2126; first compound 0.04 µM) was 0.68. The relative viability (NCI-H2126; first compound 0.1265 µM) was 0.668, the relative viability (NCI-H2126; first compound 0.4 µM) was 0.731 and the relative viability (NCI-H2126; first compound 1.265 µM) was 0.592. It also gave a relative viability (NCI-H2126; first compound 4 µM) of 0.602, a relative viability (NCI-H2228; first compound 0.04 µM) of 0.352 and a relative viability (NCI-H2228; first compound 0.1265 µM) of 0.304. For the same compound, the relative viability (NCI-H2228; first compound 0.4 µM) was 0.314, the relative viability (NCI-H2228; first compound 1.265 µM) was 0.376 and the relative viability (NCI-H2228; first compound 4 µM) was 0.374. The relative viability (NCI-H2342; first compound 0.04 µM) was 0.726, the relative viability (NCI-H2342; first compound 0.1265 µM) was 0.701 and the relative viability (NCI-H2342; first compound 0.4 µM) was 0.669. For the same compound, the relative viability (NCI-H2342; first compound 1.265 µM) was 0.769, the relative viability (NCI-H2342; first compound 4 µM) was 0.773 and the relative viability (NCI-H2347; first compound 0.04 µM) was 0.444. For the same compound, the relative viability (NCI-H2347; first compound 0.1265 µM) was 0.419, the relative viability (NCI-H2347; first compound 0.4 µM) was 0.43 and the relative viability (NCI-H2347; first compound 1.265 µM) was 0.487. It also gave a relative viability (NCI-H2347; first compound 4 µM) of 0.41, a relative viability (NCI-H358; first compound 0.04 µM) of 0.158 and a relative viability (NCI-H358; first compound 0.1265 µM) of 0.149. For the same compound, the relative viability (NCI-H358; first compound 0.4 µM) was 0.16, the relative viability (NCI-H358; first compound 1.265 µM) was 0.181 and the relative viability (NCI-H358; first compound 4 µM) was 0.157. It also gave a relative viability (NCI-H460; first compound 0.04 µM) of 0.0651, a relative viability (NCI-H460; first compound 0.1265 µM) of 0.0511 and a relative viability (NCI-H460; first compound 0.4 µM) of 0.0612. The relative viability (NCI-H460; first compound 1.265 µM) was 0.0684, the relative viability (NCI-H460; first compound 4 µM) was 0.0605 and the relative viability (NCI-H522; first compound 0.04 µM) was 0.923. It also gave a relative viability (NCI-H522; first compound 0.1265 µM) of 0.861, a relative viability (NCI-H522; first compound 0.4 µM) of 1.24 and a relative viability (NCI-H522; first compound 1.265 µM) of 0.86. For the same compound, the relative viability (NCI-H522; first compound 4 µM) was 0.945, the relative viability (NCI-H647; first compound 0.04 µM) was 0.192 and the relative viability (NCI-H647; first compound 0.1265 µM) was 0.163. It also gave a relative viability (NCI-H647; first compound 0.4 µM) of 0.163, a relative viability (NCI-H647; first compound 1.265 µM) of 0.187 and a relative viability (NCI-H647; first compound 4 µM) of 0.19. The relative viability (PC-3 [JPC-3]; first compound 0.04 µM) was 1.02, the relative viability (PC-3 [JPC-3]; first compound 0.1265 µM) was 0.943 and the relative viability (PC-3 [JPC-3]; first compound 0.4 µM) was 0.803. For the same compound, the relative viability (PC-3 [JPC-3]; first compound 1.265 µM) was 0.456, the relative viability (PC-3 [JPC-3]; first compound 4 µM) was 0.964 and the relative viability (RERF-LC-KJ; first compound 0.04 µM) was 0.489. The relative viability (RERF-LC-KJ; first compound 0.1265 µM) was 0.476, the relative viability (RERF-LC-KJ; first compound 0.4 µM) was 0.484 and the relative viability (RERF-LC-KJ; first compound 1.265 µM) was 0.502. The relative viability (RERF-LC-KJ; first compound 4 µM) was 0.458, the relative viability (SK-LU-1; first compound 0.04 µM) was 0.966 and the relative viability (SK-LU-1; first compound 0.1265 µM) was 0.881. It also gave a relative viability (SK-LU-1; first compound 0.4 µM) of 1.14, a relative viability (SK-LU-1; first compound 1.265 µM) of 0.901 and a relative viability (SK-LU-1; first compound 4 µM) of 0.928. For the same compound, the relative viability (SW 1573; first compound 0.1265 µM) was 0.72, the relative viability (SW 1573; first compound 0.4 µM) was 0.975 and the relative viability (SW 1573; first compound 1.265 µM) was 0.771. The relative viability (SW 1573; first compound 4 µM) was 0.794.
